# Results from ChEMBL document CHEMBL4130396, “Bistinospinosides A and B, Dimeric Clerodane Diterpene Glycosides from Tinospora sagittata” (J Nat Prod, 2017).
# Positions of bridges follow the written chain, without caps; N, C: chain ends. Non-standard residues stand in square brackets, D forms with d. Residues, ends and D or L forms follow the SMILES beside them. *: point of attachment. X1 = CC[C@H](C)CCCCC(=O)*; Dab = NCC[C@H](N)C(=O)O
# Test system: J774.1
# Test: Antiinflammatory activity in mouse J774.1 cells assessed as inhibition of LPS/[…]-induced NO production after 48 hrs by Griess assay
# Type: functional, cell-based
# Settings: J774.1, 48 h
row,SMILES,IC50
1,C[C@@]12C[C@@H](C3=C[C@H]4O[C@@H]3[C@H]3[C@@H]4[C@H]4OC(=O)[C@]3(O[C@@H]3O[C@H](CO)[C@@H](O)[C@H](O)[C@H]3O)[C@]3(C)CC[C@H]5C(=O)O[C@H](c6ccoc6)C[C@@]5(C)[C@H]43)OC(=O)[C@@H]1CC[C@]1(C)[C@H]2[C@H]2C=C[C@]1(O[C@@H]1O[C@H](CO)[C@@H](O)[C@H](O)[C@H]1O)C(=O)O2,> 50 µM
2,CC[C@H](C)CCCCC(=O)N[C@@H](CCN)C(=O)N[C@H](C(=O)N[C@@H](CCN)C(=O)N[C@H]1CCNC(=O)[C@H]([C@@H](C)O)NC(=O)[C@H](CCN)NC(=O)[C@H](CCN)NC(=O)[C@H](CC(C)C)NC(=O)[C@@H](Cc2ccccc2)NC(=O)[C@H](CCN)NC1=O)[C@@H](C)O (X1-[Dab]T[Dab][Dab][Dab][dF]L[Dab][Dab]T; lactam 4-C),8.5 µM
3,C[C@@]12C[C@@H](C3=C[C@@H]4O[C@H]3[C@H]3[C@H]5OC(=O)[C@@](O[C@@H]6O[C@H](CO)[C@@H](O)[C@H](O)[C@H]6O)([C@H]34)[C@]3(C)CC[C@H]4C(=O)O[C@H](c6ccoc6)C[C@@]4(C)[C@H]53)OC(=O)[C@@H]1CC[C@]1(C)[C@H]2[C@H]2C=C[C@]1(O[C@@H]1O[C@H](CO)[C@@H](O)[C@H](O)[C@H]1O)C(=O)O2,> 50 µM
